For the assay, the system named is Tetranvchus urticae (Two-Spotted Spider Mite). As to the kind of experiment: Tetranychus urticae bean leaf disc spray test, mobile stages mortality after 8 days, with COLBY expected action. To be noted: for C8 observed control %: C8 alone; for DMET observed control %: DMET alone; for SPAT observed control %: SPAT alone. Type of assay: in vivo. The source says:
The action to be expected E for a given active ingredient combination obeys the so-called COLBY formula and can be calculated as follows (COLBY, S. R. “Calculating synergistic and antagonistic responses of herbicide combination”. Weeds, Vol. 15, pages 20-22; 1967):
According to COLBY, the expected (additive) action of active ingredients A)+B) using p+q ppm of active ingredient is
If the action actually observed (O) is greater than the expected action (E), then the action of the combination is super-additive, i.e. there is a synergistic effect. In mathematical terms the synergism factor SF corresponds to O/E. In the agricultural practice an SF of ≧1.2 indicates significant improvement over the purely complementary addition of activities (expected activity), while an SF of ≦0.9 in the practical application routine signals a loss of activity compared to the expected activity.
Tetranvchus urticae (Two-Spotted Spider Mite)
Bean leaf discs on agar in 24-well microtiter plates are sprayed with test solutions (DMSO). After drying, the leaf discs are infested with mite populations of mixed ages. 8 days later, discs are checked for mobile stages (I removed “mixed population”) mortality.
Columns 4 and 5 show the control observed from the compounds alone. […] When a compound applied alone gave no control at a particular rate, it is assumed that lower rates of that compound alone also give no control. DMET=deltamethrin, SPAT=spirotetramat, C8=compound 8 in Table C.

This is an account of results in US9456606B2, “Pesticidal mixtures” (Syngenta Participations AG, priority 2011, dated 2016).

Take `CCC(=O)NC1CCc2cc(C3=NOC(c4cc(Cl)cc(Cl)c4)(C(F)(F)F)C3)ccc21` (racemic) [C8]: the “C8 observed control %” value came out at 0% (0.094 ppm, Table 1); 0% (0.187 ppm, Table 1); 0% (0.375 ppm, Table 1); 0% (0.375 ppm, Table 2); 25% (0.75 ppm, Table 1); 55% (0.75 ppm, Table 2). Moreover, the “C8 observed control %” value is given as 65% (1.5 ppm, Table 1); 80% (1.5 ppm, Table 2); 95% (3.0 ppm, Table 2); 95% (6.0 ppm, Table 2).
On to `CC1(C)[C@H](C(=O)O[C@H](C#N)c2cccc(Oc3ccccc3)c2)[C@@H]1C=C(Br)Br` [DMET, deltamethrin], for which the “DMET observed control %” value is 0% (0.39 ppm); 0% (0.781 ppm); 0% (1.562 ppm); 0% (3.125 ppm); 75% (6.25 ppm); 80% (12.5 ppm). Also, the “DMET observed control %” value reads like this: (25 ppm) 90%; (50 ppm) 90%.
Take `CCOC(=O)OC1=C(c2cc(C)ccc2C)C(=O)N[C@]12CC[C@@H](OC)CC2` [SPAT, spirotetramat]: the “SPAT observed control %” value is listed as 0% (1.56 ppm); 0% (3.125 ppm); 0% (3.25 ppm); 25% (6.25 ppm); 65% (12.5 ppm); 80% (25 ppm). Moreover, the “SPAT observed control %” value is given as 85% (50 ppm), 85% (100 ppm) and 80% (.25 ppm).
